Several values for one entry are separate records, joined by “and”; a condition that tells them apart may be missing. Equal values may be shown once. Entries after “also recorded” stand apart in the source; their conditions may differ. Read-outs that look alike come from different tables or passages of the source.
How the values were obtained:
RPE-Neo cells = test: IC50 in RPE-Neo cells (Table 2); format: cell-based, human
Description: (§1) Cells were split, plated in appropriate culture media and allowed to adhere. After 18 hours, corynoline and acetylcorynoline were added to a cell line selected from below. At 72 h or 96 h, MTT was added and at 75 h or 99 h, the A570 nm was recorded. The concentration ranged from 0.02 μM to 40 μM.
(§2) The following RPE cell lines were used in these studies: RPE NEO, RPE MBH, RPE MBC, RPE MA, RPE MP, RPE MI, and RPE MYC Nick. This RPE series were derived from human retinal pigment epithelium and then stably transfected with an hTERT expression construct for immortalization. The resulting cell line was then engineered to overexpress the MYC oncogene (RPE-MYC) or a Neomycin selection marker gene (RPE-NEO). In RPE-MYC cells, a variety of other oncogenes such as Myr-AKT, BCL2, ID1 and PI3K^E45k were further introduced individually to generate the cell lines RPE MA, RPE MBC, RPE MI, RPE MP, respectively. As a control, H2BGFP was introduced into RPE-MYC cells to generate RPE MBH.
(§3) The effect of the compounds chelidonine and protopine on cell division was assessed similarly to corynoline and acetylcorynoline above. As described in Example 6 above, as cells enter and become arrested in mitosis, they detach from the plate surface and appear as rounded cells with a smooth surface membrane. RPE-MBC cells (ectopically expressing oncogenes MYC and Bcl2) were treated with DMSO, chelidonine and protopine, and compared against controls Michael's ketone (MK) and taxol.

RPE-A19 cells = test: IC50 in RPE-A19 cells (Table 2); format: cell-based, human
Description: as §1, §3

3T3 MEF cells = test: IC50 in 3T3 MEF cells (Table 2); format: cell-based
Description: as §1, §3

Rat1A cells = test: IC50 in Rat1A cells (Table 2); format: cell-based
Description: as §1
(§4) The following Rat1A cell lines were used in these studies: Rat1 A C, Rat1A MYC, Rat1A E2F1, and Rat1A E2F3. The cell line was then engineered as control (C), to overexpress the MYC oncogene (Rat1A-MYC), to overexpress the E2F1 oncogene (Rat1A-E2F1), or to overexpress the E2F3 oncogene (Rat1A-E2F3).
as §3

RPE-MBH cells = test: IC50 in RPE-MBH cells (Table 1); format: cell-based, human
Description: as §1, §2, §3

IMR 90 cells = test: IC50 in IMR 90 cells (Table 2); format: cell-based; conditions: Homo sapiens, IMR-90, 72 h
Description: as §1, §3

RPE-MBC cells [1] = test: Mitotic arrest (cell round-up, phospho-Histone H3) and polyploidy (DAPI) assay; format: cell-based, human; conditions: for mitotic arrest: 24 hours after treatment; for polyploidy (DAPI staining): 48 hours after treatment; for persistence of the arrest of cells in mitosis: within 48-hour treatment
Description: (§5) For screening for bioactive fractions, cells were cultured in 96-well plates, and exposed to crude extracts, partially purified fractions or pure compounds at the concentrations indicated in the figure legends. Exposure was for 24 or 48 hours before analysis of cells for either an arrest in mitosis using an inverted microscope or for a change in DNA content after 4′,6′-diamidino-2-phenylindole (DAPI) staining by fluorescence microscopy.
(§6) Cells were cultured on coverslips in a 6-well plate, fixed with 4% paraformaldehyde and then permeabilized with 0.3% Triton X-100 in PBS. Primary antibody was detected with Texas-Red-conjugated secondary antibodies that were purchased from Jackson ImmunoResearch. After immunostaining, cells were mounted on microscope slides with 4′,6′-diamidino-2-phenylindole (DAPI)-containing Vectashield mounting solution (Vector Laboratories) for detection of fluorescence with an EVOS FL fluorescence microscope (ThermoFisher).
Cellular “round-up” was used as a surrogate marker for mitotic arrest and could easily be assayed using an inverted tissue culture microscope. […] Mitotic arrest was judged by cell round-up observed under an inverted tissue culture microscope 24 hours after exposing cells to the library.
As cells enter and become arrested in mitosis, they detach from the plate surface and appear as rounded cells with smooth surface membrane, distinct from detached cells that are undergoing programmed cell death. Simple visual screening method was used to assay thousands of extracts. […] To identify bioactive components that are able to interfere with mitosis, 3 kg of Corydalis longicalcarata rhizome were recollected and performed bioactivity-guided extraction, isolation, and purification. The air dried and powdered material was extracted with 70% ethanol assisted by exposure to ultrasonic waves.

RPE MBC cells = test: Spindle pole assembly by β-tubulin / Histone H3ser10P immunofluorescence; format: cell-based, human
Description: Microtubule assembly, specifically spindle pole assembly, was altered by treatment with acetylcorynoline. RPE MBC cells were treated with acetylcorynoline and Histone H3 Serine 10 Phosphorylation (Histone H3ser10p, shown in FIG. 4 and FIG. 5 in red), β-tubulin (green) and DNA (blue) was analyzed by immunofluorescence microscopy. Histone H3ser10P was used to determine the cells that were in early mitosis (e.g., prometaphase or metaphase). β-tubulin was used to examine microtubule localization and spindle assembly within the cells.
Similarly to corynoline and acetylcorynoline above, it was determined that microtubule assembly, specifically spindle pole assembly, was altered by treatment with chelidonine.

RPE-MBC cells [2] = test: IC50 in RPE-MBC cells (Table 1); format: cell-based, human
Description: as §5, with “Retinal pigment epithelial cells transformed by ectopic MYC and Bcl-2 expression (RPE-MBC cells) have been described previously (e.g., Goga et al., 2007, Nat. Med., 13 (7):820-827) and were cultured in DMEM supplemented with 5% fetal bovine serum in a humidified incubator that was maintained at 5% CO2. For” for “For”
The RPE series were derived from human retinal pigment epithelium and then stably transfected with a hTERT expression construct for immortalization. The resulting cell line was then engineered to overexpress the MYC and BCL2 oncogenes, generating the RPE MBC cell line. This cell line mimics cancer cells that overexpress MYC and Bcl2, and readily forms viable polyploid cells when cytokinesis is prevented.
as §1, §3

[3] = tested on: Rat1A cell lines (Rat1A C, Rat1A MYC, Rat1A E2F1, Rat1A E2F3); test: MTT assay, Rat1A cell lines expressing oncogenes; format: cell-based; conditions: Rat1A cell lines compared to Rat1A C (FIG. 12)
Description: as §1, §4

[4] = tested on: RPE cell lines (RPE NEO, RPE MBH, RPE MBC, RPE MA, RPE MP, RPE MI, RPE MYC Nick); test: MTT assay, RPE cell lines expressing oncogenes; format: cell-based, human; conditions: RPE cell lines compared with RPE NEO control (FIG. 11)
[5] = tested on: all tested cell lines (RPE, Rat1A and human cancer cell lines); test: MTT assay, IC50 across all of the cell lines tested; format: cell-based; conditions: for IC50: Homo sapiens
aurora-B kinase = test: Phosphorylation of Histone 3 at Ser10 as surrogate of aurora-B kinase activity; format: cell-based
Description: as §6

[6] = tested on: all tested cell lines (RPE, Rat1A and human cancer cell lines); conditions: positive control, read-out: known IC50 value; cited from earlier work
[7] = RPE-A19, treatment 72 h, read-out: IC50
[8] = 3T3 MEF, treatment 72 h, read-out: IC50
[9] = RPE-MBH, treatment 72 h, read-out: IC50

For `CN1Cc2c(ccc3c2OCO3)[C@@H]2[C@H]1c1cc3c(cc1C[C@@H]2O)OCO3` [Chelidonine, 5bR,6S,7,12bS,13,14-hexahydro-13-methyl-[1,3]benzodioxolo[5,6-c]-1,3-dioxolo[4,5-i]phenanthridin-6-ol], the IC50 (RPE-Neo cells; Homo sapiens, 72 h) was 1.11 µM, the IC50 (RPE-A19 cells; Homo sapiens, 72 h) was 1.85 µM and the IC50 (3T3 MEF cells; Mus musculus, MEF, 72 h) was 1.52 µM. The IC50 (Rat1A cells; 72 h) was 1.11 µM, the IC50 (RPE-MBH cells; Homo sapiens, 72 h) was 2.32 µM and the IC50 (IMR 90 cells) was 2.43 µM. The mitotic arrest (RPE-MBC cells [1]) was “Nearly all cells entered and arrested in mitosis”, the “polyploidy (DAPI staining)” value (RPE-MBC cells [1]) was “polyploidy was observed; also recorded: demonstrates polyploidy” and the “persistence of the arrest of cells in mitosis” value (shortened to “persistence”) (RPE-MBC cells [1]) was “transient”. For the same molecule, the “spindle formation (β-tubulin staining)” value (RPE MBC cells; 24 hours of treatment) was “multipolar spindles were formed; also recorded: multipolar spindle formation in mitosis”, the “centrosomes (β-tubulin staining)” value (RPE MBC cells; analyzed after 24 or 48 hours) was “centrosome amplification and centrosome declustering” and the IC50 (RPE-MBC cells [2]; Homo sapiens, 72 h) was greater than 40 µM.
With `CN1Cc2c(ccc3c2OCO3)[C@@]2(C)[C@@H](O)Cc3cc4c(cc3[C@@H]12)OCO4` [Corynoline, (5bR)-5bα,13-Dimethyl-5bα,6,7,12bα,13,14-hexahydro[1,3]benzodioxolo[5,6-c]-1,3-dioxolo[4,5-i]phenanthridine-6β-ol] the “change of IC50 after overexpression of oncogenes” value [3] was “increased in the Rat1 A MYC cell line”, the IC50 (RPE-Neo cells; Homo sapiens, 72 h) was 7.06 µM and the IC50 (RPE-A19 cells; Homo sapiens, 72 h) was 10.6 µM. For the same molecule, the IC50 (3T3 MEF cells; Mus musculus, MEF, 72 h) was 12.2 µM, the IC50 (Rat1A cells; 72 h) was 8.61 µM and the IC50 (RPE-MBH cells; Homo sapiens, 72 h) was 15.1 µM. For the same molecule, the IC50 (IMR 90 cells) was greater than 40 µM, the “change of IC50 after overexpression of oncogenic factors” value [4] was “all declined, with the exception of RPE MA” and the IC50 [5] was 1 to 31 µM. The “IC50 compared with the other compound” value ([5]; all different cell lines) was “lower than acetylcorynoline”, the “phosphorylation of Histone 3 at Ser10” value (aurora-B kinase) was “not affected” and the mitotic arrest (RPE-MBC cells [1]) was “can arrest mitosis within 24 hours of treatment”. For the same molecule, the mitotic arrest (RPE-MBC cells [1]; listed as corynoline) was “Nearly all cells entered and arrested in mitosis”, the “polyploidy (DAPI staining)” value (RPE-MBC cells [1]) was “induce polyploidy at 48 hours” and the “polyploidy (DAPI staining)” value (RPE-MBC cells [1]; listed as corynoline) was “Polyploidy was observed; also recorded: demonstrates polyploidy”. For the same molecule, the “mitotic arrest and polyploidy, dependence on concentration” value (RPE-MBC cells [1]; FIG. 15) was “concentration-dependent”, the “persistence” value (RPE-MBC cells [1]) was “transient” and the IC50 (RPE-MBC cells [2]; Homo sapiens, 72 h) was 8.87 µM.
`CN(C)c1ccc(C(=O)c2ccc(N(C)C)cc2)cc1` [MK, Michael's ketone, reference compound] gave an IC50 (RPE-Neo cells; RPE-Neo, treatment 72 h, read-out: IC50) of 0.805 µM, an IC50 (RPE-A19 cells; [7]) of 0.087 µM and an IC50 (3T3 MEF cells; [8]) of 3.48 µM. For the same molecule, the IC50 (Rat1A cells; Rat1A, treatment 72 h, read-out: IC50) was 1.65 µM, the IC50 (RPE-MBH cells; [9]) was 0.303 µM and the IC50 (RPE-MBC cells [2]; RPE-MBC, treatment 72 h, read-out: IC50) was 0.207 µM.
In the case of `CC(=O)O[C@H]1C(=O)[C@@]2(C)[C@H]([C@H](OC(=O)c3ccccc3)[C@]3(O)C[C@H](OC(=O)[C@H](O)[C@@H](NC(=O)c4ccccc4)c4ccccc4)C(C)=C1C3(C)C)[C@]1(OC(C)=O)CO[C@@H]1C[C@@H]2O` [Taxol, paclitaxel], the IC50 (RPE-A19 cells; Homo sapiens, 72 h, RPE-A19, treatment 72 h, read-out: IC50) is reported as 13.4 µM, the IC50 (RPE-A19 cells; [7]) is reported as 15.7 µM and 13 µM and the IC50 (3T3 MEF cells; [8]) is reported as 0.062 µM and 0.096 µM. The IC50 (3T3 MEF cells; Mus musculus, MEF, 72 h, 3T3 MEF, treatment 72 h, read-out: IC50) was 0.075 µM, the IC50 (RPE-MBH cells; Homo sapiens, 72 h, RPE-MBH, treatment 72 h, read-out: IC50) was 31.4 µM and the IC50 (RPE-MBH cells; [9]) was 22.1 µM and 22.7 µM. For the same molecule, the IC50 (IMR 90 cells; IMR 90, treatment 72 h, read-out: IC50) was 6.98 µM, the IC50 ([5]; across all of the cell lines tested (FIG. 9), MTT at 72 h or 96 h, read-out: IC50) was less than 0.02 µM and the “polyploidy (DAPI staining)” value (RPE-MBC cells [1]) was “without causing accumulation of polyploid cells”. For the same molecule, the “persistence” value (RPE-MBC cells [1]) was “persistent arrest of cells in mitosis”, the IC50 [6] was less than 0.02 µM and the IC50 (RPE-MBC cells [2]; Homo sapiens, RPE-MBC, treatment 72 h, read-out: IC50) was greater than 40 µM.
With `CN1CCc2cc3c(cc2C(=O)Cc2ccc4c(c2C1)OCO4)OCO3` [protopine, 7-Methyl-6,8,9,16-tetrahydrobis[1,3]benzodioxolo[4,5-c:5′,6′-g]azecin-15(7H)-one] the mitotic arrest (RPE-MBC cells [1]) was “Nearly all cells entered and arrested in mitosis”, the “polyploidy (DAPI staining)” value (RPE-MBC cells [1]) was “Polyploidy was observed” and the “persistence” value (RPE-MBC cells [1]) was “transient”.
In the case of `CC[C@]1(O)C[C@@H]2CN(CCc3c([nH]c4ccccc34)[C@@](C(=O)OC)(c3cc4c(cc3OC)N(C)[C@H]3[C@@](O)(C(=O)OC)[C@H](OC(C)=O)[C@]5(CC)C=CCN6CC[C@]43[C@@H]65)C2)C1` [vinblastine, reference compound], the “polyploidy (DAPI staining)” value (RPE-MBC cells [1]) is reported as “without causing accumulation of polyploid cells” and the “persistence” value (RPE-MBC cells [1]) is reported as “persistent arrest of cells in mitosis”.
